Activity calls are given as the source filed them. Rule as the data show it, for most assays here: actives have a measured Kd and inactives only a lower limit.
How the values were obtained:
[1] = biological target: Cyclin-dependent kinase 2 (Homo sapiens, UniProt P24941)
[2] = biological target: T1, Mitogen-activated protein kinase kinase kinase 5 (Homo sapiens, UniProt Q99683)
T1 sequence (Q99683 whole entry): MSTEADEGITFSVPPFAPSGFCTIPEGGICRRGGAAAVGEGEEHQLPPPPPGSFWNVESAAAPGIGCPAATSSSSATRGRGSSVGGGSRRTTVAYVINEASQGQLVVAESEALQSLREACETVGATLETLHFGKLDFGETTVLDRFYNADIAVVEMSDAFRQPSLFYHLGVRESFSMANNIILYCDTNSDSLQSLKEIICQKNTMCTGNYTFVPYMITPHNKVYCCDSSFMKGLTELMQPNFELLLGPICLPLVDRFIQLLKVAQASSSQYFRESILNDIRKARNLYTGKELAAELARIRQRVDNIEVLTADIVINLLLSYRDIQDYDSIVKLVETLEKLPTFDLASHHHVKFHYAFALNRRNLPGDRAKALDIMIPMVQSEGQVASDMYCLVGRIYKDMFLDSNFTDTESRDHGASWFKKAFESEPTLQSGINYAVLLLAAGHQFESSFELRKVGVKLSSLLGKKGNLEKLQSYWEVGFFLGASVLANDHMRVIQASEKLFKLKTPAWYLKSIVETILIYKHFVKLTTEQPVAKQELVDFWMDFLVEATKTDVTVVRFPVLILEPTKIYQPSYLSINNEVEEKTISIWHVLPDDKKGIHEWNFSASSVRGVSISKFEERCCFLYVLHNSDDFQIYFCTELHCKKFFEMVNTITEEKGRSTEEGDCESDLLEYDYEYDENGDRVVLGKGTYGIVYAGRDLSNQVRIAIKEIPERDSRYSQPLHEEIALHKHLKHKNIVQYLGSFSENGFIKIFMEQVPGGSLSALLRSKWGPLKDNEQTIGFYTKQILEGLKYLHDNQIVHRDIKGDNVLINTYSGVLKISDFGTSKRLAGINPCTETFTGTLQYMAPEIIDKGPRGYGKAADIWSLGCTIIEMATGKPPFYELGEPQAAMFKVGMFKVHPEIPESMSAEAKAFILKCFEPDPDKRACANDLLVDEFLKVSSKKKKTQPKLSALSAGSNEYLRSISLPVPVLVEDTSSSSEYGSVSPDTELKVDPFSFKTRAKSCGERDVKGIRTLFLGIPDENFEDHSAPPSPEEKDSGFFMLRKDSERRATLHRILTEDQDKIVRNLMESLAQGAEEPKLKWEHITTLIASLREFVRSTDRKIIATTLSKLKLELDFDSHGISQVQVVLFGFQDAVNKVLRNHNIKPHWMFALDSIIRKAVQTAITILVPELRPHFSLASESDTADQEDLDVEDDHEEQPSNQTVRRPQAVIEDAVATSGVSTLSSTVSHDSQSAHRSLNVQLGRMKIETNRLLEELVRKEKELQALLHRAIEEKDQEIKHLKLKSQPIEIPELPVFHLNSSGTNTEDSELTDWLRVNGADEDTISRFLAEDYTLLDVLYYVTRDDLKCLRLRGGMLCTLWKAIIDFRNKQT

[3] = biological target: T2, Serine/threonine-protein kinase 4 (Homo sapiens, UniProt Q13043)
T2 sequence (Q13043 whole entry): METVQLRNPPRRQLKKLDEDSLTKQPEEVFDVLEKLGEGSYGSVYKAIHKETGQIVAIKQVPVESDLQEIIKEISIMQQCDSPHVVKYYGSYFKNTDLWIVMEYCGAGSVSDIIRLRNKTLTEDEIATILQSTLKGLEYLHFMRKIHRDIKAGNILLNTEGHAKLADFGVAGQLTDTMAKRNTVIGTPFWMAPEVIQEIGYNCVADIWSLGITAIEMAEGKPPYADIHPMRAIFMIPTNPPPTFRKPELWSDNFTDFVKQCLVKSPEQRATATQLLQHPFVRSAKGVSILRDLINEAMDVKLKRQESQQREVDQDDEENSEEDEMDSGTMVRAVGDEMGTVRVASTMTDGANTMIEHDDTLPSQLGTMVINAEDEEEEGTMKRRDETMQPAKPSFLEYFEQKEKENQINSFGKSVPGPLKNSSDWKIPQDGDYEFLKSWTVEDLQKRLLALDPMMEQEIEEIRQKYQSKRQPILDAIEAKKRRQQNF

[4] = biological target: cAMP-dependent protein kinase catalytic subunit beta (Homo sapiens, UniProt P22694)
Ephrin type-A receptor 4 = Ephrin type-A receptor 4 (Homo sapiens, UniProt P54764)
Sequence of Ephrin type-A receptor 4 (P54764 whole entry): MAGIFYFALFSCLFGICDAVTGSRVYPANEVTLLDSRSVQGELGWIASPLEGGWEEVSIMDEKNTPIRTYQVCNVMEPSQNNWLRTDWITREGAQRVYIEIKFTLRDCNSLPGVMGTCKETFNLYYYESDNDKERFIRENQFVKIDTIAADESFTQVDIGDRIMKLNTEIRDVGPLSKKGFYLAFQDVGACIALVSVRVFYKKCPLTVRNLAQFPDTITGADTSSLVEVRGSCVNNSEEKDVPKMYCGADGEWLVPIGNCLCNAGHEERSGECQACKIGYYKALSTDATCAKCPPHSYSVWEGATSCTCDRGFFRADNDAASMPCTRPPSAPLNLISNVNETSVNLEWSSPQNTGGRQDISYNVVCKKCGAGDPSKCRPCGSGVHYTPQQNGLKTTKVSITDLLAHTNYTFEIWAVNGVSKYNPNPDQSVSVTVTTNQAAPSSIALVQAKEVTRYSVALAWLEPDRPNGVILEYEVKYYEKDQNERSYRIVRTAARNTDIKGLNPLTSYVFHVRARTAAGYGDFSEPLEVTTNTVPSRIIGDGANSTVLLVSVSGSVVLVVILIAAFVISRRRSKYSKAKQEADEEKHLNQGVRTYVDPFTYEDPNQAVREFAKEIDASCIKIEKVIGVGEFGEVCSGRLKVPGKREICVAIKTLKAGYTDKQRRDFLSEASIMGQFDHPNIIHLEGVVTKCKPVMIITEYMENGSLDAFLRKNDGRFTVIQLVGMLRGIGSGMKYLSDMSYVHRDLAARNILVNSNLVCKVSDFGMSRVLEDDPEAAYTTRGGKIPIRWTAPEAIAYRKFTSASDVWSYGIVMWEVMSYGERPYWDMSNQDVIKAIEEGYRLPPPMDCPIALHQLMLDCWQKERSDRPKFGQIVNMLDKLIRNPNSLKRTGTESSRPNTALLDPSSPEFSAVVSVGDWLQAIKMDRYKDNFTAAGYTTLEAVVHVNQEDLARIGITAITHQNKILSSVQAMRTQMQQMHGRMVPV

[5] = biological target: T3, Mitogen-activated protein kinase kinase kinase 3 (Homo sapiens, UniProt Q99759)
T3 sequence (Q99759 whole entry): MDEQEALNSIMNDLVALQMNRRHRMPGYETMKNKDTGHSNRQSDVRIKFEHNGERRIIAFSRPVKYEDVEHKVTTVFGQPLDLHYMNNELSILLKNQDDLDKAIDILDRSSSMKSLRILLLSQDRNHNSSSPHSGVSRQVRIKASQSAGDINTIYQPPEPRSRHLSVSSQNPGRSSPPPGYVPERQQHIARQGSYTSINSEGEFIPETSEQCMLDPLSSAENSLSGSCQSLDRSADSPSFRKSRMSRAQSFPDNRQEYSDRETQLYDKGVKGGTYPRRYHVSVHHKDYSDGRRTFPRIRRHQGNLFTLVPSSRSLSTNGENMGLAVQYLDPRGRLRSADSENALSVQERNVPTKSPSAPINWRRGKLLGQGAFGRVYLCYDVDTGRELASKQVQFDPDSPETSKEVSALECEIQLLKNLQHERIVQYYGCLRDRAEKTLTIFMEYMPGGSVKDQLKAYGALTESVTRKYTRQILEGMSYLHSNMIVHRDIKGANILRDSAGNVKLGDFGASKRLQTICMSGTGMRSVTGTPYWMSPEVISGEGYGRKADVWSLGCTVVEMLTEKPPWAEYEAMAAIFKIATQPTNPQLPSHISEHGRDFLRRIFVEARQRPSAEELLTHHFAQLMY

[6] = biological target: Glycogen synthase kinase-3 alpha (Homo sapiens, UniProt P49840)
Sequence of Glycogen synthase kinase-3 alpha (P49840 whole entry): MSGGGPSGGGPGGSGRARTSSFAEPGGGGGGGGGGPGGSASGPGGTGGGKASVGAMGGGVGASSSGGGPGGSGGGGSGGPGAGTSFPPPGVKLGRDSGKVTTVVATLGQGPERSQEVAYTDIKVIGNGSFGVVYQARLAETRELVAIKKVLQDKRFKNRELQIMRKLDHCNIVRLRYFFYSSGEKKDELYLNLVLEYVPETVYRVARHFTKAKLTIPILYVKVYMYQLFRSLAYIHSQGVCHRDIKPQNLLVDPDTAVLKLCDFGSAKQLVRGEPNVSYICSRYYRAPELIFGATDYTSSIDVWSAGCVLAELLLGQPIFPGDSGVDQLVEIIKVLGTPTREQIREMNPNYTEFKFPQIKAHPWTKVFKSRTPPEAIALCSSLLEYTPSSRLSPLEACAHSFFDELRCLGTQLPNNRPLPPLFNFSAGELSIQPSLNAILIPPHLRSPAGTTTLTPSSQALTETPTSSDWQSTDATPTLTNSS

[7] = biological target: Platelet-derived growth factor receptor beta (Homo sapiens, UniProt P09619)
Sequence of Platelet-derived growth factor receptor beta (P09619 whole entry): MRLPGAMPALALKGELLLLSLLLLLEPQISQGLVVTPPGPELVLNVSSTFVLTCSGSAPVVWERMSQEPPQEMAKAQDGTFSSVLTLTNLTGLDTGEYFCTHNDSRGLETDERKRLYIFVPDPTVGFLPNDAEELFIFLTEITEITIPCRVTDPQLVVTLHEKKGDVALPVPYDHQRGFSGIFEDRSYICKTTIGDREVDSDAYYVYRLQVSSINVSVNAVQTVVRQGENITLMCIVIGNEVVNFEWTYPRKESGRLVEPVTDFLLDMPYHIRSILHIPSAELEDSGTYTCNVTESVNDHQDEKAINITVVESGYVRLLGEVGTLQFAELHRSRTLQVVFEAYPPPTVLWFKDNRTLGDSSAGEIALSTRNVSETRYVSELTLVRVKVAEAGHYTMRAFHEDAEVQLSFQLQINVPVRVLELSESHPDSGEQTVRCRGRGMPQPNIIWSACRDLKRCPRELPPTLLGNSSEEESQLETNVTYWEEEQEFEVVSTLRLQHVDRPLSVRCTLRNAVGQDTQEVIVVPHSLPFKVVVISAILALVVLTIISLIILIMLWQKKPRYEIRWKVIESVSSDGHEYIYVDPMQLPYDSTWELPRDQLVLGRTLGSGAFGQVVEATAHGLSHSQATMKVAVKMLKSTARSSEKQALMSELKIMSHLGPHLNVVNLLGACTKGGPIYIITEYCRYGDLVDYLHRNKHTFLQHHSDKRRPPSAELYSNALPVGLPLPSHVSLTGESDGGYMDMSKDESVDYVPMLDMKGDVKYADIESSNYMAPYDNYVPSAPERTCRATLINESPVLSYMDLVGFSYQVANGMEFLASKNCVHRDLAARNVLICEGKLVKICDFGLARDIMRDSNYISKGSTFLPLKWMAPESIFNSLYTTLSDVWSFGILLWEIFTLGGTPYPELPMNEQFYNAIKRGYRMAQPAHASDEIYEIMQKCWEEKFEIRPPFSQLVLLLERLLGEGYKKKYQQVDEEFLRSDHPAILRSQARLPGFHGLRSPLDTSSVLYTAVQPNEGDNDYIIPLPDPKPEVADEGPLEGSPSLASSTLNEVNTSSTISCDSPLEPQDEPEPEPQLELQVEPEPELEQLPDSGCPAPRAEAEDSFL

Measured: Kd
Also: in the data inactive means no Kd found up to 30 µM.

O[C@H]1CC[C@H](Nc2ncc3nc(Nc4c(F)cc(F)cc4F)n([C@H]4CCOC4)c3n2)CC1 [TANZISERTIB]
inactive: [1] > 30 µM | [2] > 30 µM | [3] > 30 µM | [4] > 30 µM | Ephrin type-A receptor 4 > 30 µM | [5] > 30 µM | [6] > 30 µM | [7] > 30 µM

— ChEMBL document CHEMBL3991601, “The target landscape of clinical kinase drugs” (Science, 2017)
